Data published in paper PMC12150283, “Synthesis of new Ag(I) and Cd(II) hydrozanomide-based complexes with antibacterial and anticancer properties” (RSC Advances, 2025).
Read-outs that look alike come from different tables or passages of the source.

Key:
E. faecalis ATCC 29212 = assay: Diffusion-well method, inhibition zones; type: cell-based, Enterococcus faecalis; conditions: 500 µg/mL, wells 10 mm
Experimental: (§1) The antibacterial activity of tested samples was assessed against both gram-positive bacteria (Staphylococcus aureus ATCC 25923, Staphylococcus aureus ATCC 6538, Staphylococcus epidermidis ATCC 12228, Enterococcus faecalis ATCC 29212, Listeria monocytogenes ATCC 19115, Bacillus subtilis ATCC 6633, Bacillus cereus ATCC 10876) and gram-negative bacteria (Escherichia coli ATCC 10530, Salmonella typhimurium ATCC 14028). Antibacterial properties were evaluated using both the dilution method (employing DMSO and 96-well plates) and the diffusion-well method (using Mueller Hinton Agar, Merck, Germany).
(§2) 24 hour bacterial cultures with a density of 1–2 × 10^8 CFU mL^−1 were plated (0.1 mL) on Mueller–Hinton Agar (Merck, Germany). Subsequently, wells with a diameter of 10 mm were cut out from and filled with 100 μL of the tested compound at a concentration of 10–500 μg mL^−1 (diluted in DMSO). After an 18-hour incubation at either 30 °C (for Bacillus ssp.) or 37 °C (for other tested microorganisms), the inhibition zones around the wells were measured, and the results were expressed in millimetres (Table S9 ^†).

B. subtilis ATCC 6633 = assay: Diffusion-well method, inhibition zones; type: cell-based, Bacillus subtilis; conditions: 500 µg/mL, wells 10 mm
Experimental: as §1, §2

[1] = test system: S. Typhimurium ATCC 14028; assay: Diffusion-well method, inhibition zones; type: cell-based, Salmonella typhimurium; conditions: 500 µg/mL, wells 10 mm
Experimental: as §1, §2

[2] = test system: Bacillus cereus ŁOCK 0807; assay: MIC determination; type: cell-based; conditions: Bacillus cereus ŁOCK 0807; 18 h
Experimental: as §1
(§3) The minimum inhibitory concentrations (MICs) of the tested samples were evaluated against a panel of reference microorganisms obtained from the American Type Culture Collection (ATCC), including Gram-negative bacteria (Escherichia coli ATCC 10530, Salmonella typhimurium ATCC 14028), and Gram-positive bacteria (Staphylococcus aureus ATCC 25923, Staphylococcus aureus ATCC 6538, Staphylococcus epidermidis ATCC 12228, Enterococcus faecalis ATCC 29212, Listeria monocytogenes ATCC 19115, Bacillus subtilis ATCC 6633), and one strain (Bacillus cereus ŁOCK 0807) obtained from the Pure Culture of Industrial Microorganisms of the Institute of Fermentation Technology and Microbiology ŁOCK 105 (Łódź, Poland).
(§4) The microorganism cultures with a density of 1.5 × 10^8 CFU mL^−1 (corresponding to a McFarland standard of 0.5) were plated on Mueller–Hinton Agar (Merck, Germany) following the procedures recommended by the European Committee on Antimicrobial Susceptibility Testing (EUCAST).[47] Wells measuring 10 mm in diameter were cut into the medium. The tested compounds were dissolved in a DMSO solution, which was recommended due to their chemical structures. Subsequently, 100 μL of prepared solutions containing the tested compounds at concentrations ranging from x μg mL^−1 to x μg mL^−1 were added to each well. The plates were incubated at 30 °C (for Bacillus subtilis and Bacillus cereus) or 37 °C (for other bacteria) for 18 hours. After incubation, the minimum inhibitory concentration (MIC value) was determined (the lowest concentration of the tested compounds that prevents bacterial growth) and expressed in μg mL^−1. The experiment was conducted in three independent replicates. Ciprofloxacin (Sigma Aldrich, Saint Louis, MO, USA) was used as a reference antimicrobial agent against Gram-negative bacteria, while vancomycin (Sigma Aldrich, Saint Louis, MO, USA) was used as a reference antimicrobial agent against Gram-positive bacteria.

[3] = test system: Enterococcus faecalis ATCC 29212; assay: MIC determination; type: cell-based; conditions: E. faecalis ATCC 29212; 18 h
Experimental: as §1, §3, §4

[4] = test system: Escherichia coli ATCC 10530; assay: MIC determination; type: cell-based
Experimental: as §1, §3, §4

[5] = test system: Listeria monocytogenes ATCC 19115; assay: MIC determination; type: cell-based
Experimental: as §1, §3, §4

[6] = test system: Salmonella typhimurium ATCC 14028; assay: MIC determination; type: cell-based; conditions: S. typhimurium ATCC 14028; 18 h
Experimental: as §1, §3, §4

[7] = test system: Bacillus subtilis ATCC 6633; assay: MIC determination; type: cell-based; conditions: 18 h
Experimental: as §1, §3, §4

[8] = test system: Staphylococcus aureus ATCC 6538; assay: MIC determination; type: cell-based; conditions: S. aureus ATCC 6538; 18 h
Experimental: as §1, §3, §4

[9] = test system: Staphylococcus aureus ATCC 25923; assay: MIC determination; type: cell-based; conditions: S. aureus ATCC 25923, 18 h
Experimental: as §1, §3, §4

[10] = test system: Staphylococcus epidermidis ATCC 12228; assay: MIC determination; type: cell-based; conditions: S. epidermidis ATCC 12228; 18 h
Experimental: as §1, §3, §4

E. coli ATCC 10530 = assay: Diffusion-well method, inhibition zones; type: cell-based, Escherichia coli; conditions: 500 µg/mL, wells 10 mm
Experimental: as §1, §2

[11] = test system: L. monocytogenes ATCC 19115; assay: Diffusion-well method, inhibition zones; type: cell-based, Listeria monocytogenes; conditions: 500 µg/mL, wells 10 mm
Experimental: as §1, §2

S. aureus ATCC 6538 = assay: Diffusion-well method, inhibition zones; type: cell-based, Staphylococcus aureus; conditions: 500 µg/mL, wells 10 mm
Experimental: as §1, §2

S. aureus ATCC 25923 = assay: Diffusion-well method, inhibition zones; type: cell-based, Staphylococcus aureus; conditions: 500 µg/mL, wells 10 mm
Experimental: as §1, §2

B. cereus ŁOCK 0807 = assay: Diffusion-well method, inhibition zones; type: cell-based, Bacillus cereus; conditions: 500 µg/mL, wells 10 mm
[12] = test system: normal skin fibroblast BJ cells; assay: MTT cell viability assay; type: cell-based, human; conditions: BJ normal fibroblasts, 48 hours of incubation
Experimental: (§5) The glioblastoma cell lines LN-229 and U87 and the reference human normal skin fibroblast BJ were obtained from the American Type Culture Collection (ATCC). Cells were grown as monolayers when cultured in cell culture flasks and cultured in Dulbecco's Modified Eagle Medium (DMEM) – LN-229 and Eagle's Minimum Essential Medium (EMEM) – U87 and BJ, supplemented with 10% (v/v) fetal bovine serum, penicillin (10 000 U mL^−1), streptomycin (10 mg mL^−1) and amphotericin B (250 μg mL^−1). The cells were incubated at 37 °C, 5% CO2 atmosphere. The cells were maintained in the logarithmic growth phase by regular passage at 80% confluence.
(§6) The cytotoxicity of the tested compounds was evaluated against both human glioblastoma LN-229 and U-87 as well as normal BJ cell lines. The cells were plated in 96-well culture plates (2 × 10^4 well) and after 24 h incubation the cells were treated with the tested compounds in the concentration range 1–50 μM. The cells were cultured for the next 48 h. The cytotoxicity of the compounds was evaluated using the MTT colorimetric method as previously described.[28,29] IC50 values were determined using the AAT Bioquest IC50 calculator as the concentration of compounds capable of reducing cell viability by 50%. The experiment was performed in triplicate for each concentration. To examine the cytotoxic effect of compounds on cell morphology, cells were examined under an inverted phase contrast microscope Nikon Eclipse Ti with NIS Element software (Tokyo, Japan).

[13] = test system: glioblastoma LN-229 cells; assay: MTT cell viability assay; type: cell-based, human; conditions: 48 hours of incubation
Experimental: as §5, §6

glioblastoma U87 cells = assay: MTT cell viability assay; type: cell-based, human; conditions: 48 hours of incubation
Experimental: as §5, §6

[14] = test system: S. epidermidis ATCC 12228; assay: Diffusion-well method, inhibition zones; type: cell-based, Staphylococcus epidermidis; conditions: 500 µg/mL, wells 10 mm
Experimental: as §1, §2

[15] = test system: Staphylococcus aureus ATCC 25923; parameters: method as in earlier work; conditions: pure ligands, S. aureus ATCC 25923; previous study ref 29; cited from earlier work
[16] = test system: Salmonella typhimurium ATCC 14028; parameters: method as in earlier work; conditions: pure ligands, S. typhimurium ATCC 14028; previous study ref 29; cited from earlier work
[17] = test system: Staphylococcus epidermidis ATCC 12228; parameters: method as in earlier work; conditions: pure ligands, S. epidermidis ATCC 12228; previous study ref 29; cited from earlier work
[18] = test system: Enterococcus faecalis ATCC 29212; parameters: method as in earlier work; conditions: pure ligands, E. faecalis ATCC 29212; previous study ref 29; cited from earlier work
[19] = Escherichia coli ATCC 10530, 18 h
[20] = Listeria monocytogenes ATCC 19115, 18 h

| Compound | Inhibition zone (E. faecalis ATCC 29212) | Inhibition zone (B. subtilis ATCC 6633) | Inhibition zone [1] | MIC [2] | MIC [3] | MIC [4, 19] | MIC [5, 20] | MIC [6] | MIC [7] | MIC [8] | MIC [9] | MIC [10] | Inhibition zone [11] | MIC [15] | MIC [16] | MIC [17] | MIC [18] | IC50 ([12]; Homo sapiens) | IC50 ([13]; Homo sapiens) | IC50 (glioblastoma U87 cells; Homo sapiens, U-87 MG) | further results |
| --- | --- | --- | --- | --- | --- | --- | --- | --- | --- | --- | --- | --- | --- | --- | --- | --- | --- | --- | --- | --- | --- |
| NC(=NN=Cc1ccc([N+](=O)[O-])cc1)c1cccc(Cl)n1.O=[N+]([O-])[O-].[Ag+] [Complex 2, AgL2NO3] | 14 mm | 16 mm | 19 mm | 50 µg/mL | 50 µg/mL | 10 µg/mL | 10 µg/mL | 50 µg/mL | 50 µg/mL | 50 µg/mL | 50 µg/mL | > 500 µg/mL | 19 mm | – | – | – | – | – | – | – | MIC ([4]; Escherichia coli): 10 µg/mL; MIC ([5]; Listeria monocytogenes): 10 µg/mL; Inhibition zone (E. coli ATCC 10530): 20 mm; Inhibition zone (S. aureus ATCC 6538): 22 mm; Inhibition zone (S. aureus ATCC 25923): 19 mm; Inhibition zone (B. cereus ŁOCK 0807): 18 mm; IC50 [12]: 14.5 ± 2.82 µM; IC50 [13]: 37.2 ± 6.55 µM; IC50 (glioblastoma U87 cells): > 50 µM |
| NC(=NN=Cc1ccc([N+](=O)[O-])cc1)c1cccc(N2CCCC2)n1.NC(=NN=Cc1ccc([N+](=O)[O-])cc1)c1cccc(N2CCCC2)n1.O=[N+]([O-])[O-].[Ag+] [Complex 4, AgL4NO3] | 15 mm | 18 mm | 17 mm | 50 µg/mL | 50 µg/mL | ≤ 10 µg/mL | ≤ 10 µg/mL | 100 µg/mL | 50 µg/mL | 100 µg/mL | ≤ 10 µg/mL | 50 µg/mL | 19 mm | – | – | – | – | – | – | – | MIC ([4]; Escherichia coli ATCC 10530, 18 h, listed as 4): < 10 µg/mL; MIC ([5]; Listeria monocytogenes ATCC 19115, 18 h, listed as 4): 10 µg/mL; MIC ([9]; listed as 4): <10 µg/mL; Inhibition zone (E. coli ATCC 10530): 20 mm; Inhibition zone (S. aureus ATCC 6538): 16 mm; Inhibition zone (S. aureus ATCC 25923): 21 mm; Inhibition zone (B. cereus ŁOCK 0807): 17 mm; Inhibition zone [14]: 16 mm; IC50 [12]: > 50 µM; IC50 [13]: > 50 µM; IC50 (glioblastoma U87 cells): 1.22 ± 0.34 µM |
| NC(=NN=Cc1ccccc1)c1cncc(N2CCOCC2)n1.O.O=[N+]([O-])[O-].[Ag+] [Complex 5, AgL5NO3 × H2O] | 17 mm | 18 mm | 17 mm | 50 µg/mL | 50 µg/mL | > 500 µg/mL | 10 µg/mL | 50 µg/mL | 50 µg/mL | 10 µg/mL | 50 µg/mL | <10 µg/mL | 19 mm | – | – | – | – | – | – | – | Inhibition zone (S. aureus ATCC 6538): 17 mm; Inhibition zone (S. aureus ATCC 25923): 19 mm; Inhibition zone (B. cereus ŁOCK 0807): 19 mm; Inhibition zone [14]: 18 mm; IC50 [12]: > 50 µM; IC50 [13]: > 50 µM; IC50 (glioblastoma U87 cells): 49.7 ± 3.11 µM |
| NC(=NN=Cc1ccccc1)c1cncc(Cl)n1 [Complex L1, N′-(benzylidene)-6-chloropyrazine-2-carbohydrazonamide] | – | – | – | – | – | – | – | – | – | – | – | – | – | 500 µg/mL | >500 µg/mL | 500 µg/mL | 250 µg/mL | > 50 µM | > 50 µM | > 50 µM | – |
| N/C(=N\N=C\c1ccc([N+](=O)[O-])cc1)c1cccc(N2CCCC2)n1 [Complex L4, (4-nitrobenzylidene)-6-(pyrrolidin-1-yl)picolinohydrazonamide] | – | – | – | – | – | – | – | – | – | – | – | – | – | >500 µg/mL | >500 µg/mL | >500 µg/mL | >500 µg/mL | > 50 µM | 48.1 ± 6.09 µM | > 50 µM | – |
| N/C(=N\N=C\c1ccccc1)c1cncc(N2CCOCC2)n1 [Complex L5, (benzylidene)-6-morpholinopyrazine-2-carbohydrazonamide] | – | – | – | – | – | – | – | – | – | – | – | – | – | >500 µg/mL | >500 µg/mL | >500 µg/mL | >500 µg/mL | > 50 µM | > 50 µM | > 50 µM | – |
| N/C(=N\N=C\c1ccccc1)c1cncc(N2CCCC2)n1 [Complex L6, (benzylidene)-6-(pyrrolidin-1-yl)pyrazine-2-carbohydra-zonamide] | – | – | – | – | – | – | – | – | – | – | – | – | – | 500 µg/mL | 500 µg/mL | 500 µg/mL | 500 µg/mL | 42.4 ± 6.17 µM | > 50 µM | > 50 µM | – |
